Results reported in paper PMC9782603 (Viruses, 2022).
Like-named read-outs stand apart in the source and are kept apart here.

Assays:
[1] = test system: HCV GT 3a (strain S52) replicon; assay: HCV GT 3a subgenomic replicon luciferase antiviral assay in Huh7.5-3a cells; type: cell-based; settings: Hepatitis C virus, GT3A, 72 h, read-out: EC50 HCV Replicon 3a
[2] = test system: HCV GT 1b subgenomic reporter replicon (strain Con1); assay: HCV GT 1b subgenomic replicon luciferase antiviral assay in Huh5-2 cells; type: cell-based; settings: Hepatitis C virus, GT1B, Huh-5-2, 72 h, read-out: EC50 HCV Replicon 1b
[3] = test system: HCV GT 4a (strain ED43) replicon; assay: HCV GT 4a subgenomic replicon luciferase antiviral assay in Huh7.5-4a cells; type: cell-based; settings: Hepatitis C virus, GT4A, 72 h, read-out: EC50 HCV Replicon 4a
[4] = alamarBlue reduction cytotoxicity assay in replicon cells; type: cell-based; settings: human, HCV Replicon 1b cells
[5] = Huh7.5-3a, GT 3a (S52), F-Luc, 3 days
[6] = Huh5-2, GT 1b (Con1), F-Luc, 3 days
[7] = Huh7.5-4a, GT 4a (ED43), F-Luc, 3 days

Cc1ccc(OCC(=O)Nc2ccc3c(c2)c(=O)ncn3-c2ccccc2)cc1 [7a, N-(4-Oxo-1-phenyl-1,4-dihydroquinazolin-6-yl)-2-(p-tolyloxy)acetamide]
EC50 [1, 5]: > 10 µM
melting point: 220 °C
EC50 [2, 6]: > 10 µM
EC50 [3, 7]: > 10 µM
CC50 at 3 days [4]: 84.7 ± 14 µM

Cc1cccc(-n2cnc(=O)c3cc(NC(=O)COc4ccc(Cl)cc4)ccc32)c1 [7e, 2-(4-Chlorophenoxy)-N-(4-oxo-1-(m-tolyl)-1,4-dihydroquinazolin-6-yl)acetamide]
EC50 [1, 5]: > 10 µM
melting point: 255 °C
EC50 [2, 6]: > 10 µM
EC50 [3, 7]: > 10 µM
CC50 at 3 days [4]: 47.6 ± 5.56 µM

Cc1cccc(-n2c(C)nc(=O)c3cc(NC(=O)COc4ccc(Cl)c(C)c4)ccc32)c1 [11f, 2-(4-Chloro-3-methylphenoxy)-N-(2-methyl-4-oxo-1-(m-tolyl)-1,4-dihydroquinazolin-6-yl)acetamide]
EC50 [1, 5]: > 10 µM
melting point: 290 °C
EC50 [2, 6]: > 1 µM
EC50 [3, 7]: > 10 µM
CC50 at 3 days [4]: 27.4 ± 2.71 µM

Cc1cccc(-n2c(C)nc(=O)c3cc(N)ccc32)c1 [9b, 6-Amino-2-methyl-1-(m-tolyl)quinazolin-4(1H)-one]
EC50 [1, 5]: > 10 µM
melting point: 270 to 273 °C
EC50 [2, 6]: > 10 µM
EC50 [3, 7]: > 10 µM
CC50 at 3 days [4]: > 200 µM

Nc1ccc2c(c1)c(=O)ncn2-c1ccccc1 [5a, 6-Amino-1-phenylquinazolin-4(1H)-one]
EC50 [1, 5]: > 10 µM
melting point: 293 to 295 °C
EC50 [2, 6]: 9.84 ± 0.57 µM
EC50 [3, 7]: > 10 µM
CC50 at 3 days [4]: > 200 µM

Cc1cccc(Nc2ccc([N+](=O)[O-])cc2C(=O)O)c1 [1b, 5-nitro-2-(m-tolylamino)benzoic acid]
EC50 [1, 5]: > 10 µM
EC50 [2, 6]: > 10 µM
EC50 [3, 7]: > 10 µM
CC50 at 3 days [4]: > 200 µM

Cc1cccc(Nc2ccc([N+](=O)[O-])cc2C(N)=O)c1 [3b, 5-Nitro-2-(m-tolylamino) benzamide]
EC50 [1, 5]: > 10 µM
melting point: 188 to 190 °C
EC50 [2, 6]: > 10 µM
EC50 [3, 7]: > 10 µM
CC50 at 3 days [4]: 161.3 ± 0.07 µM

Cc1nc(=O)c2cc([N+](=O)[O-])ccc2n1-c1ccccc1 [8a, 2-Methyl-6-nitro-1-phenylquinazolin-4(1H)-one]
EC50 [1, 5]: > 10 µM
melting point: 260 to 262 °C
EC50 [2]: > 10 µM
EC50 [3, 7]: > 10 µM
CC50 at 3 days [4]: > 200 µM

Cc1nc(=O)c2cc(NC(=O)CCl)ccc2n1-c1ccccc1 [10a, 2-Chloro-N-(2-methyl-4-oxo-1-phenyl-1,4-dihydroquinazolin-6-yl)acetamide]
EC50 [1, 5]: > 10 µM
melting point: 285 °C
EC50 [2, 6]: > 10 µM
EC50 [3, 7]: > 10 µM
CC50 at 3 days [4]: 87.47 ± 0.24 µM

O=C(O)c1cc([N+](=O)[O-])ccc1Nc1ccccc1 [1a, 5-nitro-2-(phenylamino)-benzoic acid]
EC50 [1, 5]: > 10 µM
EC50 [2, 6]: > 10 µM
EC50 [3, 7]: > 10 µM
CC50 at 3 days [4]: > 200 µM

Cc1cccc(-n2cnc(=O)c3cc(NC(=O)COc4ccc(Cl)c(C)c4)ccc32)c1 [7f, 2-(4-Chloro-3-methylphenoxy)-N-(4-oxo-1-(m-tolyl)-1,4-dihydroquinazolin-6-yl)acetamide]
EC50 [1, 5]: > 10 µM
melting point: 269 °C
EC50 [2, 6]: > 10 µM
EC50 [3, 7]: > 10 µM
CC50 at 3 days [4]: 105 ± 10.3 µM

Cc1cccc(-n2c(C)nc(=O)c3cc(NC(=O)CCl)ccc32)c1 [10b, 2-Chloro-N-(2-methyl-4-oxo-1-(m-tolyl)-1,4-dihydroquinazolin-6-yl)acetamide]
EC50 [1, 5]: > 10 µM
melting point: 280 °C
EC50 [2, 6]: > 10 µM
EC50 [3, 7]: > 10 µM
CC50 at 3 days [4]: 177.2 ± 0.03 µM

O=C(COc1ccc(Cl)cc1)Nc1ccc2c(c1)c(=O)ncn2-c1ccccc1 [7b, 2-(4-Chlorophenoxy)-N-(4-oxo-1-phenyl-1,4-dihydroquinazolin-6-yl)acetamide]
EC50 [1, 5]: > 10 µM
melting point: 262 °C
EC50 [2, 6]: > 10 µM
EC50 [3, 7]: > 10 µM
CC50 at 3 days [4]: 154 ± 3.71 µM

Cc1cc(OCC(=O)Nc2ccc3c(c2)c(=O)ncn3-c2ccccc2)ccc1Cl [7c, 2-(4-Chloro-3-methylphenoxy)-N-(4-oxo-1-phenyl-1,4-dihydroquinazolin-6-yl)acetamide]
EC50 [1, 5]: > 10 µM
melting point: 255 °C
EC50 [2, 6]: > 10 µM
EC50 [3, 7]: > 10 µM
CC50 at 3 days [4]: 75.2 ± 9.24 µM

Cc1ccc(OCC(=O)Nc2ccc3c(c2)c(=O)nc(C)n3-c2cccc(C)c2)cc1 [11d, N-(2-Methyl-4-oxo-1-(m-tolyl)-1,4-dihydroquinazolin-6-yl)-2-(p-tolyloxy)acetamide]
EC50 [1, 5]: > 10 µM
melting point: 270 °C
EC50 [2, 6]: > 1 µM
EC50 [3, 7]: > 10 µM
CC50 at 3 days [4]: 22.7 ± 2.23 µM

Cc1cccc(-n2cnc(=O)c3cc([N+](=O)[O-])ccc32)c1 [4b, 6-Nitro-1-(m-tolyl)quinazolin-4(1H)-one]
EC50 [1, 5]: > 10 µM
melting point: 185 °C
EC50 [2, 6]: > 10 µM
EC50 [3, 7]: > 10 µM
CC50 at 3 days [4]: 64.9 ± 0.03 µM

NC(=O)c1cc([N+](=O)[O-])ccc1Nc1ccccc1 [3a, 5-nitro-2-(phenylamino)benzamide]
EC50 [1, 5]: > 10 µM
EC50 [2, 6]: > 10 µM
EC50 [3, 7]: > 10 µM
CC50 at 3 days [4]: 70.69 ± 0.04 µM

Cc1ccc(OCC(=O)Nc2ccc3c(c2)c(=O)ncn3-c2cccc(C)c2)cc1 [7d, N-(4-oxo-1-(m-tolyl)-1,4-dihydroquinazolin-6-yl)-2-(p-tolyloxy)acetamide]
EC50 [1, 5]: > 10 µM
melting point: 206 °C
EC50 [2, 6]: > 10 µM
EC50 [3, 7]: > 10 µM
CC50 at 3 days [4]: 50.1 ± 1.77 µM

Cc1cccc(-n2cnc(=O)c3cc(N)ccc32)c1 [5b, 6-Amino-1-(m-tolyl)quinazolin-4(1H)-one]
EC50 [1, 5]: > 10 µM
melting point: 288 to 290 °C
EC50 [2, 6]: > 10 µM
EC50 [3, 7]: > 10 µM
CC50 at 3 days [4]: > 200 µM

Cc1nc(=O)c2cc(N)ccc2n1-c1ccccc1 [9a, 6-Amino-2-methyl-1-phenylquinazolin-4(1H)-one]
EC50 [1, 5]: > 10 µM
melting point: 268 to 270 °C
EC50 [2]: > 10 µM
EC50 [3, 7]: > 10 µM
CC50 at 3 days [4]: > 200 µM

Cc1cccc(-n2cnc(=O)c3cc(NC(=O)CCl)ccc32)c1 [6b, 2-Chloro-N-(4-oxo-1-(m-tolyl)-1,4-dihydroquinazolin-6-yl)acetamide]
EC50 [1, 5]: > 10 µM
melting point: 290 °C
EC50 [2, 6]: > 10 µM
EC50 [3, 7]: > 10 µM
CC50 at 3 days [4]: 143 ± 14.2 µM

O=c1ncn(-c2ccccc2)c2ccc([N+](=O)[O-])cc12 [4a, 6-Nitro-1-phenylquinazolin-4(1H)-one]
EC50 [1, 5]: > 10 µM
melting point: 246 to 248 °C
EC50 [2, 6]: > 10 µM
EC50 [3, 7]: > 10 µM
CC50 at 3 days [4]: > 200 µM

Cc1cccc(-n2c(C)nc(=O)c3cc([N+](=O)[O-])ccc32)c1 [8b, 2-Methyl-6-nitro-1-(m-tolyl)quinazolin-4(1H)-one]
EC50 [1, 5]: > 10 µM
melting point: 258 to 260 °C
EC50 [2]: > 10 µM
EC50 [3, 7]: > 10 µM
CC50 at 3 days [4]: 151 ± 5.41 µM

COC(=O)N[C@H](C(=O)N1CCC[C@H]1c1nc(-c2ccc(-c3ccc(-c4c[nH]c([C@@H]5CCCN5C(=O)[C@@H](NC(=O)OC)C(C)C)n4)cc3)cc2)c[nH]1)C(C)C [Daclatasvir, reference compound]
EC50 [1]: 2.12e-05 µM
EC50 [2, 6]: 2.66e-05 µM
EC50 [3]: 0.008 ± 0.001 µM
CC50 at 3 days [4]: 17.7 µM

O=C(CCl)Nc1ccc2c(c1)c(=O)ncn2-c1ccccc1 [6a, 2-Chloro-N-(4-oxo-1-phenyl-1,4-dihydroquinazolin-6-yl)acetamide]
EC50 [1, 5]: > 10 µM
melting point: < 300 °C
EC50 [2, 6]: > 10 µM
EC50 [3, 7]: > 10 µM
CC50 at 3 days [4]: 104.2 ± 0.03 µM

Cc1cc(OCC(=O)Nc2ccc3c(c2)c(=O)nc(C)n3-c2ccccc2)ccc1Cl [11c, 2-(4-Chloro-3-methylphenoxy)-N-(2-methyl-4-oxo-1-phenyl-1,4-dihydroquinazolin-6-yl)acetamide]
EC50 [1, 5]: > 10 µM
melting point: 271 °C
EC50 [2, 6]: > 10 µM
EC50 [3, 7]: > 10 µM
CC50 at 3 days [4]: > 200 µM
